Entries after “also recorded” stand apart in the source; their conditions may differ.
Assays:
ERK phosphorylation = experiment: Western blot, ERK phosphorylation in thyroid cancer cells; assay type: cell-based, Human; details: 6 hours
Protocol: Protein isolation and Western blot were performed as previously described. Ringel et al., Cancer research 61:6105-6111 (2001). 25 μg of total cell lysates were loaded into 4-12% SDS-PAGE, electrophoresed, and transferred to nitrocellulose membranes for immunoblotting. Primary antibodies against Akt (#9272), phospho-Akt (Thr308) (#2965), p44/42 MAPK (Erk1/2) (#9107), phospho-p44/42 MAPK (Erk1/2) (Thr202/Tyr204) (#4377) and GAPDH (#2118) were obtained from Cell Signaling Technology (Danvers, Mass., USA). Antibody against Vimentin (V6630) and phospho-Ser55 Vimentin were from Sigma-Aldrich, Inc. (St. Louis, Mo.) and MBL Co. (Nagoya, Japan), respectively. Antibodies against total and phosphorylated S6 were from Cell Signaling Technology®.
The dose-dependency of compounds 4 and 15 was next assessed (FIG. 4). […] Due to the important role that ERK activation plays in thyroid cancer, and its signaling activation by thyroid oncogenes, the effects of the compounds on ERK phosphorylation was also assessed.

FAK = FAK (Homo sapiens, UniProt Q05397); experiment: Kinase profiling panel: FAK; assay type: biochemical; details: 5 μM compound; average of triplicate
Protocol: (§1) To further probe the selectivity of the compounds 4 and 15, they were subjected for kinase profiling service for screening against a panel of other kinases selected based on the kinase tree at 5 μM concentration, at or above the IC50 for the two compounds versus PAK in both in vitro and cell-based assays. […] PAK1 was not available for testing using this system thus it was not possible to compare directly in this assay system.

GSK3β = GSK3β (Homo sapiens, UniProt P49841); experiment: Kinase profiling panel: GSK3β; assay type: biochemical; details: 5 μM compound; average of triplicate
Protocol: as §1

Recombinant active PAK 1 = molecular target: T1, Recombinant active PAK 1 (Homo sapiens, UniProt Q13153); experiment: In vitro PAK1 kinase assay (MBP substrate, 32P-ATP); assay type: biochemical; details: for Inhibition of PAK1 kinase activity in initial screen: 7.5 μM inhibitor, 2.5 μM ATP, myelin basic protein substrate (FIG. 2A); for ATP competition for PAK1: ATP 5-40 μM, Lineweaver-Burk analysis (FIG. 2C); for Relative PAK1 inhibitory potency (comparison in words) / IC50: in vitro kinase assay; for Relative PAK1 inhibitory potency (comparison in words): comparison between compounds / with OSU-03012; for IC50: read-out: IC50 versus PAK, in vitro (bound implied by chosen test concentration)
T1 construct: purchased Calbiochem
Protocol: Recombinant active PAK 1 (Calbiochem) was incubated with selected derivatives or 0.1% DMSO in the presence or absence of MBP (Sigma) in a 1× kinase buffer (Cell Signaling). The addition of [γ-32P]-ATP (2.5 μCi/reaction) (Perkin Elmer) started the reaction, which was incubated at 30° C. for 30 minutes. The reaction was terminated by the addition of EDTA. Results were obtained after visualization of ^32P-labeled MBP after separation on 12% polyacrylamide gels and autoradiography. For the Lineweaver-Burk plot analysis, the ratio of radioactive ATP to nonradioactive ATP was not altered. The PAK1 kinase activities are the means of three independent experiments quantified using P81 phosphocellulose paper by a scintillation counter after three washes with 0.75% phosphoric acid.
Screening of OSU-03012 Derivatives to Identify PAK1 Inhibitors. The 17 derivatives along with OSU-03012, each at 7.5 μM, were screened for their ability to inhibit PAK1 activity by in vitro PAK1 kinase assay. The dose was chosen (above the IC50 of OSU-03012) to allow OSU-03012 to serve as a robust positive control. The PAK1 kinase assay was performed using recombinant active PAK1 with myelin basic protein as substrate in the presence of 2.5 μM ATP and 7.5 μM of respective inhibitors.
To further investigate these six compounds, dose-response studies on PAK1 activity were performed by using PAK1 kinase assay. […] We next questioned whether compounds 4 or 15 inhibited PAK1 in an ATP competitive manner as their parent compound OSU-03012.

p70S6K = p70S6K (Homo sapiens, UniProt P23443); experiment: Kinase profiling panel: p70S6K; assay type: biochemical; details: 5 μM compound; for % activity vs. DMSO, p70S6K: average of triplicate
Protocol: as §1

C-RAF = C-RAF (Homo sapiens, UniProt P04049); experiment: Kinase profiling panel: C-RAF; assay type: biochemical; details: 5 μM compound; average of triplicate
Protocol: as §1

FTC133 cells = experiment: Boyden chamber migration assay, FTC133; assay type: cell-based, Human; details: 2.5 μM or 5.0 μM, 12 hours
Protocol: (§2) Cells were grown in media containing 10% FBS. After 24 hours, the medium was aspirated, and media containing 1% FBS was added for 24 hours. The cells were trypsinized for 2 to 5 minutes, washed, and resuspended in media containing 1% FBS. The cell concentration was calculated by hemocytometer. Four hundred μl 1% FBS medium was added into 24-well plates, and a Boyden chamber (8 μm pore) was inserted into each well. Cells were added to each insert, and were allowed to attach in an incubator at 37° C. at 5% CO2 for 2 hours. The cells were then exposed to various concentrations of drugs or control diluent for 3 hours. The inserts were switched to a new well containing media containing 10% FBS, and the chamber was incubated for 12 or 24 hours depending on the migration rate of the cell line. The cells on and under the Boyden chamber membrane were fixed with 3.7% formaldehyde containing 0.05% crystal violet for 15 min after washing cells with PBS. The chambers were washed with distilled water. […] The Q-tips containing the scraped cells and the Boyden chamber containing the non-migrated cells were separately incubated in 80% methanol, shaken at 500 g for 30 minutes, and the extracted dye was measured at 570 nm. Migration was quantified as the ratio of the migrated cells over the total cells (non-migrated plus […]). […]

PKCα = PKCα (Homo sapiens, UniProt P17252); experiment: Kinase profiling panel: PKCα; assay type: biochemical; details: 5 μM compound; average of triplicate
Protocol: as §1

TPC1 cells = experiment: Boyden chamber migration assay, TPC1; assay type: cell-based, Human; details: 5 μM, 24 hours, P<0.05 versus DMSO
Protocol: as §2

CDK1/cyclinB = CDK1/cyclinB (Homo sapiens, UniProt P06493); experiment: Kinase profiling panel: CDK1/cyclinB; assay type: biochemical; details: 5 μM compound; average of triplicate
Protocol: as §1

T1 sequence (Q13153 whole entry): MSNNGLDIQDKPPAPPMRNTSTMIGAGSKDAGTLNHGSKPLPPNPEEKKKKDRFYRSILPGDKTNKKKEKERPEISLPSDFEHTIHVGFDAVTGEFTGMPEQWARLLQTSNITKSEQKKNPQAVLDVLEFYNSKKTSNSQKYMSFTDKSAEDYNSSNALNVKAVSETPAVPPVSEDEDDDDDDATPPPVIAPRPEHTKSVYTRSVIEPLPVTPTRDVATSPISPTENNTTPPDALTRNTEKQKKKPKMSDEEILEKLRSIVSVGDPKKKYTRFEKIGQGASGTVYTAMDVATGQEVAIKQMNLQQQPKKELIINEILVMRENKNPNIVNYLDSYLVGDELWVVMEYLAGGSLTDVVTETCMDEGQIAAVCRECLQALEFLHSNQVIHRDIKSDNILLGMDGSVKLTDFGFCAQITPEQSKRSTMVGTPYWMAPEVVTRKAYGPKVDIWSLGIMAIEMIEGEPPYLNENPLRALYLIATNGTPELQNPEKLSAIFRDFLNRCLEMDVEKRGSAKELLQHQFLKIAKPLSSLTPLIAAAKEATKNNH
Chain of p70S6K (P23443 whole entry): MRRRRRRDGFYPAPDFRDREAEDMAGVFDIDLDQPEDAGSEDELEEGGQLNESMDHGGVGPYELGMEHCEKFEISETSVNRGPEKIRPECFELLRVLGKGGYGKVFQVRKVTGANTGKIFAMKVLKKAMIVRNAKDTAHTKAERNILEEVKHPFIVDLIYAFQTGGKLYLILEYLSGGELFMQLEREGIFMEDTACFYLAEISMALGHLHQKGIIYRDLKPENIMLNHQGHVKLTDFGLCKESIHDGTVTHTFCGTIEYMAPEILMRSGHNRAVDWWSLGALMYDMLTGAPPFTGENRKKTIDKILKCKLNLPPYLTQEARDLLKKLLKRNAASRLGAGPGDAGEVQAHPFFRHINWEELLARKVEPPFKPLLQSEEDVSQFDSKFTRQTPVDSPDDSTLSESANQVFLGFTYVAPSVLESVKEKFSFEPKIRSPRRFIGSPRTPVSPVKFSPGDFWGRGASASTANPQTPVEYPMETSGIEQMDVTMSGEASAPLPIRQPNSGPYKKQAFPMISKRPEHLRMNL
Chain of CDK1/cyclinB (P06493 whole entry, species assumed): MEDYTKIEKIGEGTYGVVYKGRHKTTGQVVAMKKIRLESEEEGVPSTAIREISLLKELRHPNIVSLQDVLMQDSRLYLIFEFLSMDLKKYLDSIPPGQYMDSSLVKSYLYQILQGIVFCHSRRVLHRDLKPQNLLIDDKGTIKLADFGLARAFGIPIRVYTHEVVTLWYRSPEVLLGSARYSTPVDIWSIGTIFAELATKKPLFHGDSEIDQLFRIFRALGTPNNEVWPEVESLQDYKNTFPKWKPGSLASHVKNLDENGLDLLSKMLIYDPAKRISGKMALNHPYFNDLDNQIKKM
Chain of CDK1/cyclinB (P14635 whole entry partner, species assumed): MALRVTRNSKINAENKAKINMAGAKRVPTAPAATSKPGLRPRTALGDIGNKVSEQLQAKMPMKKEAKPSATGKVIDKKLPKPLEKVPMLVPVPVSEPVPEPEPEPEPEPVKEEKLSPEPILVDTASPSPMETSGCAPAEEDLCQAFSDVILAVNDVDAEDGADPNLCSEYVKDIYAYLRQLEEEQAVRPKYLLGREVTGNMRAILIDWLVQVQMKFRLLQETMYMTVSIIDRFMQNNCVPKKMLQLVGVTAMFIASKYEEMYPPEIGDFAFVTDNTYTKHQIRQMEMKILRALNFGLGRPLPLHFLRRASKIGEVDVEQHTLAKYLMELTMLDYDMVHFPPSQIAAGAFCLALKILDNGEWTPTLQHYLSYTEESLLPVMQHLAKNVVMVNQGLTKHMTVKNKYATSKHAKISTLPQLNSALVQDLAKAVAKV
Chain of FAK (Q05397 whole entry, species assumed): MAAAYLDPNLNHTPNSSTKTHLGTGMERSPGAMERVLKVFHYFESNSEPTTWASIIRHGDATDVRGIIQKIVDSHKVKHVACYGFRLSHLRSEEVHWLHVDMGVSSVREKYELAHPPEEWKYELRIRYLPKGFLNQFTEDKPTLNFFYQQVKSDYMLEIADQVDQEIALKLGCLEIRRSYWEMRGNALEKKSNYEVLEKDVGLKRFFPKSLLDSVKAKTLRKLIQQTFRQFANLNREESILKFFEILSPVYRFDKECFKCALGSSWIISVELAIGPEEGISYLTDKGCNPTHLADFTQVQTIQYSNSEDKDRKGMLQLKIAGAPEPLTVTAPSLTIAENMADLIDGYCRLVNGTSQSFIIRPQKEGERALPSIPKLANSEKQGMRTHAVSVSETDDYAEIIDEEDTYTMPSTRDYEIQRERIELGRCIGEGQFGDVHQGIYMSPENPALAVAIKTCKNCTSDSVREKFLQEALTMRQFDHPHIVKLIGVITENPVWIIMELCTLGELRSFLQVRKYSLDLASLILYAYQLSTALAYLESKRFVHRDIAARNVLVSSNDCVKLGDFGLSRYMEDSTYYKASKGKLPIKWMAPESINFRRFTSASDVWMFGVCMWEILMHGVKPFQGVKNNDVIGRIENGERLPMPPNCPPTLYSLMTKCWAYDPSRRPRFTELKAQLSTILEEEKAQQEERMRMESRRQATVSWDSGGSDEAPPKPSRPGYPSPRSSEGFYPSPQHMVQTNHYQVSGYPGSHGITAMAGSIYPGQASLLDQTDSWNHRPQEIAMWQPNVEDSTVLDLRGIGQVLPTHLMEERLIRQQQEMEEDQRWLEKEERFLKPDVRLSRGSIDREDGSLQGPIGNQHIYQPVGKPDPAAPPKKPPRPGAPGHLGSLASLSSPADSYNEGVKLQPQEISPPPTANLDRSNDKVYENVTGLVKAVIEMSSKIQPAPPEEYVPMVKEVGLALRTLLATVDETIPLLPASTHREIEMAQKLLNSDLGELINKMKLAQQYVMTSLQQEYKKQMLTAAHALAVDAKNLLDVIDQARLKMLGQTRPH
Chain of C-RAF (P04049 whole entry, species assumed): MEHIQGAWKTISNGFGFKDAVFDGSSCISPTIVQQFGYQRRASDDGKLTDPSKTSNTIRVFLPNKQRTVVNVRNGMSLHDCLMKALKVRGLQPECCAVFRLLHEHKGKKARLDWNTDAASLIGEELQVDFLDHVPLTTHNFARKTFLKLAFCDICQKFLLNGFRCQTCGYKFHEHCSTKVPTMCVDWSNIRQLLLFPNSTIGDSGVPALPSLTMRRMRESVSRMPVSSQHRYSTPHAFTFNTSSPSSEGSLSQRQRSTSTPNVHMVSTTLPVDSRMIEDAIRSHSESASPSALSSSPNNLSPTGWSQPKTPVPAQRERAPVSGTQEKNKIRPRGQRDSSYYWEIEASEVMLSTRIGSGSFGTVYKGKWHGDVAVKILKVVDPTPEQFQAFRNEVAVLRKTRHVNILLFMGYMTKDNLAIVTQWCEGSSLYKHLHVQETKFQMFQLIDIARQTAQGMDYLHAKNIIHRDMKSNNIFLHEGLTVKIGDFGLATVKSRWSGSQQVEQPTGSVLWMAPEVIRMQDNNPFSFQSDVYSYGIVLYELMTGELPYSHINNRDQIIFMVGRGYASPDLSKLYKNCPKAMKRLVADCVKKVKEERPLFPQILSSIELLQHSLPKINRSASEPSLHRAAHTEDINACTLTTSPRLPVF
Chain of GSK3β (P49841 whole entry, species assumed): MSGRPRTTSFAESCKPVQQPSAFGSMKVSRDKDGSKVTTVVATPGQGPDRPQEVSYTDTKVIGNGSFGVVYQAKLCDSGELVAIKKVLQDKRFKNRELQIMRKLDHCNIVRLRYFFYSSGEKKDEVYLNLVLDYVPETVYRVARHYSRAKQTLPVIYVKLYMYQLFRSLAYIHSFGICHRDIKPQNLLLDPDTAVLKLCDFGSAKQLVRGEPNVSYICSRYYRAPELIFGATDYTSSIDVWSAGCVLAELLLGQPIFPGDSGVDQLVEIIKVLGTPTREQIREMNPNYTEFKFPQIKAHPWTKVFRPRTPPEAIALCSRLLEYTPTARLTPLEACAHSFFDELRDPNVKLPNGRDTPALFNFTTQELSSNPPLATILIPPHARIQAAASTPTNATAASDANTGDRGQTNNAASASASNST

| SMILES | ERK phosphorylation, all three cell lines (ERK phosphorylation; dose-response, BCPAP, FTC133 and TPC1 cells) | % activity vs. DMSO, FAK (FAK) [%] | % activity vs. DMSO, GSK3β (GSK3β) [%] | Inhibition of PAK1 kinase activity in initial screen (Recombinant active PAK 1) | ATP competition for PAK1 (Recombinant active PAK 1) | Relative PAK1 inhibitory potency (comparison in words) (Recombinant active PAK 1) | IC50 (Recombinant active PAK 1) [µM] | inhibition at 5 µM (p70S6K) [%] | % activity vs. DMSO, p70S6K (p70S6K) [%] | % activity vs. DMSO, C-RAF (C-RAF) [%] | Migration of FTC133 cells (FTC133 cells) | % activity vs. DMSO, PKCα (PKCα) [%] | Migration of TPC1 cells (TPC1 cells) | % activity vs. DMSO, CDK1/cyclinB (CDK1/cyclinB) [%] | ERK phosphorylation, BCPAP cells (ERK phosphorylation; 2.5 μM, BCPAP cells (BRAF V600E)) | ERK phosphorylation, other two cell lines (ERK phosphorylation; FTC133 and TPC1 cells) |
| --- | --- | --- | --- | --- | --- | --- | --- | --- | --- | --- | --- | --- | --- | --- | --- | --- |
| NCCC(=O)Nc1ccc(-n2nc(C(F)(F)F)cc2-c2ccc3ccc4ccccc4c3c2)cc1 [Compound 4, 3-amino-N-(4-(5-(phenanthren-3-yl)-3-(trifluoromethyl)-1H-pyrazol-1-yl)phenyl)-propanamide] | no demonstrable effects on ERK phosphorylation | 87 | 170 | inhibited PAK1 kinase activity | competed with ATP binding to PAK1 | comparable PAK1 inhibitory activity to OSU-03012; also recorded: more potent than the other compounds | ≤ 5 | > 50 | 28 | 104 | not inhibited; also recorded: neither compound significantly inhibited migration | 92 | decreased cell motility; also recorded: inhibited migration | 83 | – | – |
| CC(C)NC(=O)c1cc(-c2ccc3ccc4ccccc4c3c2)n(-c2ccc(NC(=O)CN)cc2)n1 [Compound 15, 1-(4-(2-Aminoacetamido)phenyl)-N-isopropyl-5-(phenanthren-3-yl)-1H-pyrazole-3-carboxamide] | – | 96 | 137 | inhibited PAK1 kinase activity | competed with ATP binding to PAK1 | relative enhancement in activity; also recorded: comparable PAK1 inhibitory activity to OSU-03012; also recorded: more potent than the other compounds | ≤ 5 | > 50 | 38 | 108 | not inhibited; also recorded: neither compound significantly inhibited migration | 92 | decreased cell motility; also recorded: inhibited migration | 95 | inhibited ERK phosphorylation | at higher concentrations |

— patent US9156790B2, “Anticancer P21-activated kinase inhibitors” (Ohio State Innovation Foundation, priority 2013, dated 2015)
